# Experimental data from patent US20230138414A1, “METHODS AND COMPOSITIONS FOR PREVENTING AND TREATING MYOPIA” (The Trustees of Columbia University in the City of New York, priority 2020, published 2023).
# Where a name gives a salt, the structure may show the parent alone. Read-outs that look alike come from different tables or passages of the source.
# Experiments:
# myopia development [1] = conditions: chickens and guinea pigs; cited from earlier work
# sclera = conditions: rabbit, in vivo; cited from earlier work
# myopia [2] = conditions: 300 mg/kg dose, guinea pigs; cited from earlier work
# [3] = system: progression of myopia in children; conditions: daily oral 400 mg (∼15 mg/kg), cited from earlier work
# myopia [4] = conditions: monkeys; effect strongly depended on the genetic background; cited from earlier work
# induced myopia = conditions: 30 mg/kg dose, rabbits; cited from earlier work
# [5] = system: mice with experimentally induced myopia; assay: Lens-induced myopia (-25 D lens over right eye, 3 weeks), drug in diet; type: in vivo, C57BL/6J (B6) mice; conditions: for interocular difference in refractive error between lens-treated eyes and control eyes: after 3 weeks of lens treatment, control group -10.47 ± 3.02 D; for inhibition (suppression) of myopia: systemic oral administration, 3 weeks, -25 D lens, B6 mice
# Source text: Myopia was induced in 24-days old C57BL/6J (B6) mice by attaching -25 diopter (D) lens placed in a plastic 3D-printed frame over right eye. The contralateral eye served as control. Mice were raised with lenses for 3 weeks (FIG. 1A). After 3 weeks, the lenses were removed and refractive errors in the lens-treated eyes and contralateral control eyes were compared. Lens-treatment produced myopia in the lens-treated eyes (average refractive error = -14.6 ± 0.3 D) relative to the control eyes (average refractive error = +0.6 ± 0.6 D) (FIG. 1B); the interocular difference in refractive error (-15.2 ± 0.7 D) was highly significant (P < 0.0001). […] The diameter of lens-treated eyes was on average 65 ± 8 µm larger (P < 0.0001; FIG. 1C), and the vitreous chamber depth in the lens-treated eyes was 61 ± 4 µm longer (P < 0.0001; FIG. 1C), than that of the control fellow eyes.
# The experimental group of B6 mice was raised with -25 D lenses over right eye (as described in Example 1) on a diet supplemented with 5 mg/kg of levocabastine hydrochloride for 3 weeks, while the control group of B6 mice with -25 D lenses over right eye was raised on a regular non-medicated diet. The interocular difference in refractive error between lens-treated eyes and control eyes in the levocabastine-treated animals after 3 weeks of lens treatment was +0.55 ± 2.32 D versus -10.47 ± 3.02 D in the control group, P-value = 2.83 × 10^-10.
# (§1) The experimental group of B6 mice was raised with -25 D lenses over right eye on a diet supplemented with 1 mg/kg of fenoterol hydrobromide for 3 weeks, while the control group of B6 mice with -25 D lenses over right eye was raised on a regular non-medicated diet. The interocular difference in refractive error between lens-treated eyes and control eyes in the fenoterol-treated animals after 3 weeks of lens treatment was -0.8 ± 1.80 D versus -10.47 ± 3.02 D in the control group, P = 2.47 × 10^-08.
# as §1, with “trichostatin A” for “fenoterol hydrobromide”, “trichostatin-A-treated” for “fenoterol-treated”, “0.48” for “-0.8”, “1.46” for “1.80”, “4.43” for “2.47”, “10^-10.” for “10^-08.”
# (§2) The experimental group of B6 mice was raised with -25 D lenses over right eye on a diet supplemented with 0.3 mg/kg of fingolimod phosphate for 3 weeks, while the control group of B6 mice with -25 D lenses over right eye was raised on a regular non-medicated diet. The interocular difference in refractive error between lens-treated eyes and control eyes in the fingolimod-treated animals after 3 weeks of lens treatment was -0.02 ± 1.58 D versus -10.47 ± 3.02 D in the control group, P = 4.63 × 10^-9.
# The experimental group of B6 mice was raised with -25 D lenses over right eye on a diet supplemented with 20 mg/kg of berberine chloride for 3 weeks, while the control group of B6 mice with -25 D lenses over right eye was raised on a regular non-medicated diet. The interocular difference in refractive error between lens-treated eyes and control eyes in the berberine-treated animals after 3 weeks of lens treatment was -5.15 ± 1.22 D versus -10.47 ± 3.02 D in the control group, P = 1.31 × 10^-4.
# as §2, with “10” for “0.3”, “S-methyl-L-thiocitrulline hydrochloride” for “fingolimod phosphate”, “S-methyl-L-thiocitrulline-treated” for “fingolimod-treated”, “-0.28” for “-0.02”, “2.17” for “1.58”, “6.73” for “4.63”
# myopia development [6] = conditions: chicken, mouse and non-human primates; cited from earlier work
# [7] = system: progression of myopia in children; conditions: cited from earlier work
# [8] = system: development of ocular components and emmetropization; conditions: juvenile primates; cited from earlier work
# progression of myopia [9] = conditions: cited from earlier work
# progression of myopia [10] = conditions: 1-year period, cited from earlier work
# [11] = system: experimentally induced myopia; conditions: chickens; cited from earlier work
# myopia [12] = conditions: guinea pigs; cited from earlier work
# mouse model of myopia = conditions: cited from earlier work
# experimental myopia = conditions: tree shrews, rhesus monkeys, and chickens; cited from earlier work
# progression of myopia [13] = conditions: guinea pigs; cited from earlier work
# [14] = system: progression of myopia in children; conditions: cited from earlier work; remark: listed apart in the source
smiles,measurement,setting,value
"CCCCP(=O)(O)C1CCC(N)C1 (stereo not shown) [3-ACPBPA, (3-aminocyclopentanyl) butylphosphinic acid]",suppression of myopia development,myopia development [1],suppress myopia development
"Cn1cnc2[nH]c(=O)[nH]c(=O)c21 [7-MX, 7-methylxanthine]",changes in the sclera,sclera,thickening of the sclera and an increase in the diameter of the scleral collagen fibrils
same,suppression of myopia,myopia [2],49%
same,effect on myopia progression,[3]; subjects with high rates of progression,no effect
same,suppression of myopia,[3]; subjects with slow progressing myopia,approximately 22%
same,suppression of myopia,myopia [4],can suppress myopia in primates
same,reduction of the extent of induced myopia,induced myopia,approximately 67%
NCCCP(=O)(O)CC1CCCCC1 [CGP46381],suppression of myopia development,myopia development [1],suppress myopia development
[H]/N=C(\NCCC[C@H](N)C(=O)O)SC [S-methyl-L-thiocitrulline hydrochloride],interocular difference in refractive error between lens-treated eyes and control eyes,[5]; diet supplemented with 10 mg/kg,-0.28 ± 2.17 D
same,inhibition (suppression) of myopia,[5]; 10 mg/kg in diet,approximately 97%
"CP(=O)(O)C1=CCNCC1 [TPMPA, (1,2,5,6-tetrahydropyridin-4yl) methylphosphinic acid]",suppression of myopia development,myopia development [1],suppress myopia development
CN1CCc2cccc3c2[C@H]1Cc1ccc(O)c(O)c1-3 [apomorphine],inhibition of myopia development,myopia development [6],inhibit myopia development
CN1[C@@H]2CC[C@H]1C[C@@H](OC(=O)C(CO)c1ccccc1)C2 (stereo partly shown) [atropine],long-term suppression effect,"[7]; 0.01% atropine, 5-year follow up study",approximately 30%
same,drop of the progression rate after cessation of treatment,"[7]; 0.01% atropine, after cessation of treatment",approximately 30%
same,retardation of the progression of myopia,"[7]; 0.01% atropine, children",59%
same,retardation of the progression of myopia,"[7]; 0.1% atropine, children",68%
same,suppression of the progression of myopia,"[7]; 0.5% atropine, children",75%
same,long-term effects on development of ocular components and emmetropization,[8],long-term adverse effects
same,retardation of the progression of myopia,"progression of myopia [9]; 1% atropine eye drops, 2-year treatment period",approximately 76%
same,side effects,progression of myopia [9]; 1% atropine,"photophobia, reduced accommodation amplitude, and blurred vision"
same,retardation of progression of myopia,progression of myopia [10]; 0.01% atropine,27%
same,retardation of progression of myopia,progression of myopia [10]; 0.025% atropine,43%
same,retardation of progression of myopia,progression of myopia [10]; 0.05% atropine,67%
COc1ccc2cc3[n+](cc2c1OC)CCc1cc2c(cc1-3)OCO2 [berberine chloride],interocular difference in refractive error between lens-treated eyes and control eyes,[5]; diet supplemented with 20 mg/kg,-5.15 ± 1.22 D
same,inhibition (suppression) of myopia,[5]; 20 mg/kg in diet,approximately 50%
Brc1c(NC2=NCCN2)ccc2nccnc12 [brimonidine],inhibition of experimentally induced myopia,[11],suppressed myopia
same,suppression of myopia,myopia [12],suppressed myopia
Clc1cccc(Cl)c1N=C1NCCN1 [clonidine],inhibition of experimentally induced myopia,[11],inhibit experimentally induced myopia
CC(/C=C/C=C(\C)C(=O)O)=C\C=C\C=C(C)\C=C\C=C(/C)C(=O)O [crocetin],outcome of drug screen,mouse model of myopia,potential anti-myopia agent
CC(Cc1ccc(O)cc1)NCC(O)c1cc(O)cc(O)c1 (stereo not shown) [fenoterol hydrobromide],interocular difference in refractive error between lens-treated eyes and control eyes,[5]; diet supplemented with 1 mg/kg,-0.8 ± 1.80 D
"CCCCCCCCc1ccc(CCC(N)(CO)COP(=O)(O)O)cc1 (stereo not shown) [fingolimod phosphate, fingolimod (FTY720) phosphate]",interocular difference in refractive error between lens-treated eyes and control eyes,[5]; diet supplemented with 0.3 mg/kg,-0.02 ± 1.58 D
N=C(N)NC(=O)Cc1c(Cl)cccc1Cl [guanfacine],inhibition of experimentally induced myopia,[11],inhibit experimentally induced myopia
C[C@@H]1OC(=O)[C@H]2C[C@H]3CCCC[C@@H]3[C@@H](/C=C/[C@H]3CCC[C@H](C)N3C)[C@@H]12 [himbacine],inhibition of the development of experimental myopia,experimental myopia,inhibit the development of experimental myopia
CC(C)OC(=O)CCC/C=C\C[C@@H]1[C@@H](CC[C@@H](O)CCc2ccccc2)[C@H](O)C[C@@H]1O [latanoprost],reduction of progression of myopia,progression of myopia [13],reduce progression of myopia
C[C@@H]1CN([C@H]2CC[C@](C#N)(c3ccc(F)cc3)CC2)CC[C@]1(C(=O)O)c1ccccc1 [levocabastine hydrochloride],interocular difference in refractive error between lens-treated eyes and control eyes,[5]; diet supplemented with 5 mg/kg,+0.55 ± 2.32 D
CN1CCN(CC(=O)N2c3ccccc3C(=O)Nc3cccnc32)CC1 [pirenzepine],suppression of the progression of myopia,[14]; children,40%
same,side effects,[14]; clinical trials eventually discontinued,serious side effects
same,inhibition of the development of experimental myopia,experimental myopia,inhibit the development of experimental myopia
CC(=C\[C@@H](C)C(=O)c1ccc(N(C)C)cc1)/C=C(\C)C(=O)NO [trichostatin A],interocular difference in refractive error between lens-treated eyes and control eyes,[5]; diet supplemented with 1 mg/kg,0.48 ± 1.46 D
same,inhibition (suppression) of myopia,[5]; 1 mg/kg in diet,more than 100%
